From patent US20210308196A1, “COMPOSITIONS AND METHODS TO PROMOTE HOST DEFENSE AND STIMULATE, EXPAND, AND/OR RESET T CELL REPERTOIRES” (EVOLVE BIOSYSTEMS, INC., priority 2018, published 2021) come the findings set out here.

The subject of assay [1] is zonulin. Nature of the assay: Fecal zonulin ELISA. Particulars: treatment group. The class given is in vivo, human. The source says: Fecal zonulin concentrations: Zonulin has been described as the main physiological modulator of intercellular tight junction, and increased levels are indicative of increased gut permeability.
In assay [2] the test system is TNF. Put plainly: Fecal TNF expression. Format: in vivo, human. Particulars: treatment group.
For assay [3], the system named is human colonic mucin glycans. Put plainly: Fecal glycome and colonic mucin-derived O-glycans (nano-HPLC-Chip-TOF MS). Format: in vivo. The source says:
A library of known mucin-specific O-glycans was compiled and used to query untargeted mass spectra of fecal samples.
Analysis of spectra obtained with nano-high performance liquid chromatography-chip/time-of flight mass spectrometry (nano-HPLC-Chip-TOF MS). […] Briefly, the HPLC system used was an Agilent 1200 series unit with a microfluidic chip, which was coupled to an Agilent 6220 series TOF mass spectrometer via chip cube interface. The capillary pump on the chromatography unit loaded the sample onto the 40-nL enrichment column at a flow rate of 4.0 μL/min with a 1-μL injection volume. A nano pump was used for analyte separation on the analytical column, which was […] and packed with porous graphitized carbon. Separation was accomplished using a binary gradient of aqueous solvent A (3% acetonitrile (ACN)/water (v/v) in 0.1% formic acid (FA)) and organic solvent B (90% ACN/water (v/v) in 0.1% FA) using a method developed for HMO separation. The sample was introduced into the TOF mass spectrometer via electrospray ionization, which was tuned and calibrated using a dual nebulizer electrospray source with calibrant ions ranging from m/z 118.086 to 2721.895, and data were collected in the positive mode. These untargeted spectra were reanalyzed in the present study.
Glycan data analysis. The untargeted mass spectra were collected (as above) and analyzed using Agilent MassHunter Work station Data Acquisition version B.02.01 on the nanoHPLC-chip/TOF (Frese et al 2017). The “Find Compounds by Molecular Feature” function of the software was used to identify mucin glycan species within 20 ppm of theoretical masses. Compound abundances were expressed as volume in ion counts that corresponded to absolute abundances of the compounds in each sample. 1HexNAc-1NeuAc, 1HexNAc-1Hex-NeuAc, 2HexNAc-1NeuAc, 2HexNAc-1Hex-1Fuc, 2HexNAc-1Hex-1NeuAc, 2HexNAc-1Hex-2Fuc, 3HexNAc-1Hex-1Fuc, 2HexNAc-1Hex-1Fuc-1NeuAc, 2HexNAc-1Hex-1Fuc-2NeuAc, 3HexNAc-1Hex-2NeuAc and 3HexNAc-1Hex-2Fuc-1NeuAc were monitored as they are discriminitively human colonic glycans. Robbe et al. (2004) Rapid Communications in Mass Spectrometry 18(4): 412-420.
Statistical analysis. Multiple t-tests were carried out with the Holm-Sidak correction in Graph Pad Prism 7 (GraphPad Software, La Jolla, Calif. USA). Pearson and Spearman correlational tests and principle component analyses were performed in R (v 3.4.2). Adonis test was carried out using a weighted UNIFRAC distance matrix (Lozupone et al 2011) in QIIME 1.9.1 (Caporaso et al 2010). […] The total oligosaccharide (OS) compositions of the samples were determined by the untargeted approach of nano-HPLC-Chip-TOF. The compounds were characterized using previously published libraries. Thomsson et al. (2002) Glycobiology 12(1): 1-14; Robbe et al. (2004) Rapid Communications in Mass Spectrometry 18(4): 412-420; Matamoros et al. (2013) Trends in Microbiology 21(4): 167-173; Karav et al. (2016) Applied and Environ. Micro. 82(12): 3622-3630. Among these compositions, free HMO (Frese et al. (2017) mSphere 2(6): e00501-e00517) and mucin OS were found in the infant fecal glycome. The degradation of human colonic mucin glycans by different gut microbiome profiles was determined as the difference between a B. infantis-dominated microbiome and microbiomes with more abundant mucolytic taxa, such as Bacteroidaceae. As target molecules, 1HexNAc-1NeuAc, 1HexNAc-1Hex-NeuAc, 2HexNAc-1NeuAc, 2HexNAc-1Hex-1Fuc, 2HexNAc-1Hex-1NeuAc, 2HexNAc-1 Hex-2Fuc, 3HexNAc-1Hex-1Fuc, 2HexNAc-1Hex-1Fuc-1NeuAc, 2HexNAc-1Hex-1Fuc-2NeuAc, 3HexNAc-1Hex-2NeuAc and 3HexNAc-1Hex-2Fuc-1NeuAc, were selected as typical human colonic mucin glycans, as shown by Robbe et al. (2004) Rapid Communications in Mass Spectrometry 18(4): 412-420.

Take “Bifidobacterium longum subsp. infantis EVC001 [B. infantis EVC001]”: the Fecal zonulin concentration entry in assay [1] is “significantly reduced”. Besides, the “Fecal TNF expression” value in assay [2] is given as “significantly reduced”. The “Number of total OS structures (including isomers and anomers)” value in assay [3] (infant feces, FIG. 2A) was found to be 360.44±102.52. Further, the “Number of colonic mucin-derived O-glycan structures” value in assay [3] (infant feces, FIG. 2B) is on record as 6.33 (±2.24). The “Relative abundance of colonic mucin-derived O-glycans, number of structures” value in assay [3] (infant feces, FIG. 2C) is recorded as 1.78%±0.385. Also, in assay [3] (infant feces, FIG. 2D), the “Colonic mucin-derived O-glycans, proportion of the total OS profile” value is 1.68±1.12%. In assay [3] (infant feces, neutral mass 512), the “Glycan 1_0_0_1 (1HexNAc-1NeuAc) Log10 Volume EVC001-fed [Mean (+/− SD)]” value is listed as 5.39. For the same substance, in assay [3] (infant feces, neutral mass 675), the “Glycan 1_1_0_1 (1HexNAc-1Hex-1NeuAc) Log10 Volume EVC001-fed [Mean (+/− SD)]” value came to 4.01. Also, in assay [3] (infant feces, neutral mass 716), the “Glycan 2_0_0_1 (2HexNAc-1NeuAc) Log10 Volume EVC001-fed [Mean (+/− SD)]” value is listed as 0. In assay [3] (infant feces, neutral mass 735), the “Glycan 2_1_1_0 (2HexNAc-1Hex-1Fuc) Log10 Volume EVC001-fed [Mean (+/− SD)]” value was 0. In addition, the “Glycan 2_1_0_1 (2HexNAc-1Hex-1NeuAc) Log10 Volume EVC001-fed [Mean (+/− SD)]” value in assay [3] (infant feces, neutral mass 878) is reported as 5.56. Also, the “Glycan 2_1_2_0 (2HexNAc-1Hex-2Fuc) Log10 Volume EVC001-fed [Mean (+/− SD)]” value in assay [3] (infant feces, neutral mass 879) came out at 5.48. Moreover, in assay [3] (infant feces, neutral mass 936), the “Glycan 3_1_1_0 (3HexNAc-1Hex-1Fuc) Log10 Volume EVC001-fed [Mean (+/− SD)]” value turned out to be 5.43. In addition, in assay [3] (infant feces, neutral mass 1024), the “Glycan 2_1_1_1 (2HexNAc-1Hex-1Fuc-1NeuAc) Log10 Volume EVC001-fed [Mean (+/− SD)]” value is on record as 5.38. The “Glycan 2_1_1_2 (2HexNAc-1Hex-1Fuc-2NeuAc) Log10 Volume EVC001-fed [Mean (+/− SD)]” value in assay [3] (infant feces, neutral mass 1315) is 6.68. For the same substance, the “Glycan 3_1_0_2 (3HexNAc-1Hex-2NeuAc) Log10 Volume EVC001-fed [Mean (+/− SD)]” value in assay [3] (infant feces, neutral mass 1372) is 5.47. Moreover, in assay [3] (infant feces, neutral mass 1373), the “Glycan 3_1_2_1 (3HexNAc-1Hex-2Fuc-1NeuAc) Log10 Volume EVC001-fed [Mean (+/− SD)]” value was determined as 6.12. The Mucin degradation entry in assay [3] (supplemented infants compared to the control group) is recorded as “significantly less”.
